Test results: patent publication US20210267989A1, “Novel Compounds for the Treatment, Alleviation or Prevention of Disorders Associated with Tau Aggregates” (AC Immune SA, priority 2018, published 2021)
Counter-ions that a name gives are not always drawn.

Each molecule was assayed against T1, recombinant full-length (fl)Tau aggregates (longest isoform of human Tau, 2N4R; 441 amino acids) (Homo sapiens, UniProt P10636) (assay: Full-length Tau (flTau) disaggregation assay by Thioflavin T (ThT)). Conditions: ThT fluorescence; 2 μM flTau aggregates, 30 minutes at RT.
T1 construct: 35 μM of recombinant full-length (fl)Tau in PBS were aggregated for 24 hours; made in house; host or cells: bacteria
Type: biochemical
Experimental: Full-Length Tau (flTau) Disaggregation Assay by Thioflavin T (ThT)
The longest isoform of human Tau (2N4R; 441 amino acids) was expressed in bacteria and purified. For the Tau disaggregation assay by ThT, 35 μM of recombinant full-length (fl)Tau in PBS were aggregated for 24 hours at 37° C. in presence of 50 μM of heparin (Sigma-Aldrich) and 10 mM of DTT (Sigma-Aldrich) under shaking at 750 RPM. Compounds were dissolved in anhydrous dimethyl sulfoxide (DMSO, Sigma-Aldrich) to reach a concentration of 10 mM. flTau aggregates and serial dilutions of compounds were mixed together in PBS (volume 50 μL) to a final concentration of 2 μM of flTau aggregates and from 160 to 0.04 μM of compounds. The mixture was incubated for 30 minutes at room temperature (RT), then 40 μL of this mixture were transferred into a black 384-well plate assay (Perkin-Elmer) and mixed with 10 μL of 100 μM ThT in 250 mM glycine (both from Sigma-Aldrich) in PBS. Fluorescence (relative fluorescence units; RFU) was measured in monoplicate or duplicate on a Tecan reader (excitation: 440 nm; emission: 485 nm). Percentage of flTau disaggregation was then calculated and the half maximal effective concentration (EC50) was determined using GraphPad Prism version 5 (GraphPad Software) assuming a one-binding site fitting model.

T1 sequence (P10636 1-441 isoform P10636-8): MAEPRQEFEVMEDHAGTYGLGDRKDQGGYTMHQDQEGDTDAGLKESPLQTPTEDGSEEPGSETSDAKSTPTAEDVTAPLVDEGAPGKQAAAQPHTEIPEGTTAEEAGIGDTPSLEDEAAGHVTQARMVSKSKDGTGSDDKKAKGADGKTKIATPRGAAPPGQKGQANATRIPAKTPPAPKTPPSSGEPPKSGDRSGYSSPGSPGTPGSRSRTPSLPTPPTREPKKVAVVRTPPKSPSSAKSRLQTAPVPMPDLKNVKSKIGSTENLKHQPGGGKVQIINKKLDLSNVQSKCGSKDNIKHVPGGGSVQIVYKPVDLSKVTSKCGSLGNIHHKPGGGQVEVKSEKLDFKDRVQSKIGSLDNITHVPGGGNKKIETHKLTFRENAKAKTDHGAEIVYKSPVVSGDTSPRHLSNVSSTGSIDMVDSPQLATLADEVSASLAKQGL

SMILES | EC50 [µM]
Cn1c2c(c3ccc(F)cc31)CCN(c1ccc3nc(N4CCOCC4)sc3c1)C2 [Example 6] | < 10
Cn1c2c(c3ccc(F)cc31)CCN(c1ccc3sc(N4CCOCC4)nc3c1)C2 [Example 7] | < 10
Cn1c2c(c3cc(F)ccc31)CCN(c1ccc(N3CCOCC3)nc1)C2 [Example 8] | < 10
COc1cc(N2CCc3c(n(C)c4ccc(F)cc34)C2)ccc1F [Example 9] | < 10
CN(C)c1nc2cc(N3CCc4c(n(C)c5ccc(F)cc45)C3)ccc2s1 [Example 11] | < 10
CN(C)c1nc2ccc(N3CCc4c(n(C)c5ccc(F)cc45)C3)cc2o1 [Example 12] | < 10
CN(C)c1nc2cc(N3CCc4c(n(C)c5ccc(F)cc45)C3)ccc2o1 [Example 13] | < 10
COc1ccc2c(c1)c1c(n2C)CN(c2ccc3sc(N4CCOCC4)nc3c2)CC1 [Example 14] | < 10
COc1ccc2c(c1)c1c(n2C)CN(c2ccc3nc(N4CCOCC4)sc3c2)CC1 [Example 15] | < 10
COc1ccc2c(c1)c1c(n2C)CN(c2ccc3oc(N4CCOCC4)nc3c2)CC1 [Example 16] | < 10
COc1ccc2c(c1)c1c(n2C)CN(c2ccc3sc(N(C)C)nc3c2)CC1 [Example 17] | < 10
COc1ccc2c(c1)c1c(n2C)CN(c2ccc3nc(N(C)C)sc3c2)CC1 [Example 18] | < 10
COc1ccc2c(c1)c1c(n2C)CN(c2ccc3nc(N(C)C)oc3c2)CC1 [Example 19] | < 10
c1ccc2c3c([nH]c2c1)CN(c1ccc(N2CCOCC2)nc1)CC3 [Example 44 HCl] | < 10
Cn1c2c(c3ccccc31)CCN(c1ccc(N3CCOCC3)cn1)C2 [Example 45 HCl] | < 10
Cn1c2c(c3ccccc31)CCN(c1ccc(N3CCOCC3)nc1)C2 [Example 46 HCl] | 10 to 25
c1ccc2c3c([nH]c2c1)CN(c1ccc(N2CC4COCC4C2)nc1)CC3 (stereo not shown) [Example 69 HCl] | < 10

SMILES | EC50 [µM]
c1ccc2c3c([nH]c2c1)CN(c1ccc(N2CC4CC(C2)O4)nc1)CC3 [Example 71 HCl] | 10 to 25
C[C@H]1CN(c2ccc(N3CCc4c([nH]c5ccccc45)C3)cn2)CCO1 [Example 74 HCl] | < 10
C[C@@H]1CN(c2ccc(N3CCc4c([nH]c5ccccc45)C3)cn2)CCO1 [Example 75 HCl] | < 10
C[C@@H]1CN(c2ccc(N3CCc4c([nH]c5ccccc45)C3)cn2)C[C@H](C)O1 [Example 76 HCl] | < 10
C[C@H]1COCCN1c1ccc(N2CCc3c([nH]c4ccccc34)C2)cn1 [Example 79 HCl] | 10 to 25
c1ccc2c3c([nH]c2c1)CN(c1ccc(N2CC4(CCOCC4)C2)nc1)CC3 [Example 80 HCl] | 10 to 25
c1ccc2c3c([nH]c2c1)CN(c1ccc(N2CCC4(CC2)COC4)nc1)CC3 [Example 83 HCl] | 25 to 50
c1ccc2c3c([nH]c2c1)CN(c1ccc(N2C[C@H]4C[C@@H]2CO4)nc1)CC3 [Example 85 HCl] | 10 to 25
c1ccc2c3c([nH]c2c1)CN(c1ccc(N2C[C@@H]4C[C@H]2CO4)nc1)CC3 [Example 86 HCl] | < 10
Cn1c2c(c3cc(F)ccc31)CCN(c1ccc3oc(N4CCOCC4)nc3c1)C2 [Example 104] | < 10
Cn1c2c(c3cccnc31)CCN(c1ccc(N3CCOCC3)nc1)C2 [Example 105 HCl] | 25 to 50
Cn1c2c(c3cc(F)cnc31)CCN(c1ccc(N3CCOCC3)cn1)C2 [Example 107 HCl] | 25 to 50
Fc1ccc2c3c([nH]c2c1)CN(c1ccc(N2CCOCC2)nc1)CC3 [Example 108 HCl] | < 10
Fc1ccc2c3c([nH]c2c1)CN(c1ccc(N2CCOCC2)cn1)CC3 [Example 109 HCl] | < 10
Cn1c2c(c3ccc(F)cc31)CCN(c1ccc(N3CCOCC3)nc1)C2 [Example 110 HCl] | < 10
Cn1c2c(c3ccc(F)cc31)CCN(c1ccc(N3CCOCC3)cn1)C2 [Example 111 HCl] | < 10
CCn1c2c(c3ccccc31)CCN(c1ccc(N3CCOCC3)nc1)C2 [Example 123 HCl] | < 10

What follows are molecules tested against T2, Tau K18 fragment aggregates (amino acids 244 to 372 of human Tau441) (Homo sapiens, UniProt P10636) (assay: Tau K18 disaggregation assay by ThT). Conditions: ThT fluorescence; 2 μM K18 aggregates, 30 minutes at RT.
T2 construct: encompassing amino acids 244 to 372 of the longest isoform (2N4R) of human Tau441; host or cells: bacteria
Type: biochemical
Experimental: Tau K18 Disaggregation Assay by ThT
The Tau K18 fragment, encompassing amino acids 244 to 372 of the longest isoform (2N4R) of human Tau441, was expressed in bacteria and purified or bought from SignalChem. For the K18 disaggregation assay by ThT, 35 μM of recombinant K18 in PBS were aggregated for 24 hours at 37° C. in presence of 50 μM of heparin (Sigma-Aldrich) and 10 mM of DTT (Sigma-Aldrich) under shaking at 750 RPM. Compounds were dissolved in anhydrous dimethyl sulfoxide (DMSO, Sigma-Aldrich) to reach a concentration of 10 mM. K18 aggregates and serial dilutions of compounds were mixed together in PBS (volume 50 μL) to a final concentration of 2 μM of K18 aggregates and from 160 to 0.04 μM of compounds. The mixture was incubated for 30 minutes at room temperature (RT), then 40 μL of this mixture were transferred into a black 384-well plate assay (Perkin-Elmer) and mixed with 10 μL of 100 μM ThT in 250 mM glycine (both from Sigma-Aldrich) in PBS. Fluorescence (relative fluorescence units; RFU) was measured in monoplicate or duplicate on a Tecan reader (excitation: 440 nm; emission: 485 nm). Percentage of K18 disaggregation was then calculated and half maximal effective concentration (E050) was determined using GraphPad Prism version 5 (GraphPad Software) assuming a one-binding site fitting model.

T2 sequence (P10636 561-689): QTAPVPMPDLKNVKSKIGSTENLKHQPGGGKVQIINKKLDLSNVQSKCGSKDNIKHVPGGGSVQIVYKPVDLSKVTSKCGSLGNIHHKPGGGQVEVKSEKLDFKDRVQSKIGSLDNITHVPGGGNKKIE

SMILES | EC50 [µM]
COc1ccc2c(c1)c1c(n2C)CN(c2ccc3oc(N(C)C)nc3c2)CC1 [Example 21] | < 10
c1ccc2c3c([nH]c2c1)CN(c1ccc2nc(N4CCOCC4)sc2c1)CC3 [Example 38] | < 10
c1ccc2c3c([nH]c2c1)CN(c1ccc(N2CCOCC2)cn1)CC3 [Example 43] | < 10
Cn1c2c(c3ccccc31)CCN(c1ccc(N3CCOCC3)cn1)C2 [Example 45] | < 10

Each molecule was assayed against T3, Aggregated human Tau in human neuroblastoma cell line overexpressing full-length human Tau P301L (Homo sapiens, UniProt P10636, P618L) (assay: Reduction of intracellular Tau aggregation (AlphaLISA, aggregated Tau normalized to total Tau)). Conditions: compound at 5 μM, 24 h, relative to DMSO-treated cells.
T3 construct: overexpressing the full-length form of human Tau carrying the P301L mutation; expressed in transfected cells; host or cells: human neuroblastoma cell line (G418 selection)
Type: cell-based
Experimental: Reduction of Intracellular Tau Aggregation
A human neuroblastoma cell line overexpressing the full-length form of human Tau carrying the P301L mutation was cultured in complete medium [DMEM-F12 4.5 g/L Glutamax (Invitrogen), 15% FBS (Biochrom), 1% Peni/Strep (Invitrogen) supplemented with 2.5 μg/ml of G418 (Sigma-Aldrich) selection antibiotic]. The day before the experiment 5×10^5 cells/well were plated in a 6 well plate in 3 mL of complete medium. The next day, cells were incubated with DMSO or a compound of the present invention at 5 μM for additional 24 h at 37° C. After incubation, cells were trypsinized, resupsended in 100 μl of homogenization buffer [25 mM Tris-HCl pH 7.4, 150 mM NaCl, 1 mM EDTA, 1 mM EGTA containing phosphatase inhibitors (30 mM NaF, 0.2 mM Na3VO4, 1 nM okadaic acid, 1 mM PMSF, 5 mM Na4P2O7) and protease inhibitor cocktail (Complete™, Roche)], and then physically lysed with three rapid cycles of freezing and thawing. Samples were then directly tested in the AlphaLISA assay.
Phosphorylated, aggregated, and total Tau were quantified by AlphaLisa using the following antibody pairs: • HT7-Acceptor beads+biotin (BT)-Tau13-Donor beads: Total Tau • HT7-Acceptor beads+biotin (BT)-HT7-Donor beads: Aggregated human Tau
The Tau13 (Abcam) was biotinylated using EZ-Link® NHS-PEO Solid Phase biotinylation kit (Thermo Scientific), while the HT7-biotin was from a commercial source (Thermo Scientific).
For each antibody pairs the concentration of acceptor beads and biotinylated antibodies was optimized. All samples were first tested in a dilution series in PBS in order to identify the linear range and optimal dilution for each sample and assay. For the final protocol, the following reagents were added in a 384-well white OptiPlate (PerkinElmer): • 5 μL of test diluted sample • 20 μL of the mixture biotin-mAb acceptor beads at the following final concentrations: • HT7-BT at 1.25 nM in combination with HT7-Acc beads at 10 μg/ml • Tau13-BT at 5 nM in combination with HT7-Acc beads at 2.5 μg/ml
After incubation of this mixture at room temperature for 1 h, 25 μL of Streptavidin Donor beads (Perkin Elmer) at 25 μg/mL were added in the dark. Plates were analyzed after 30 min incubation using the EnSpire Alpha instrument and EnSpire Workstation version 3.00. Data for aggregated Tau were normalized to total Tau and then expressed as percentage of the DMSO-treated cells.

T3 sequence (P10636 1-441 isoform P10636-8 P301L): as the sequence (P10636 1-441 isoform P10636-8) above, with P301L counted along it

SMILES | % Reduction of intracellular Tau aggregation
CN(C)c1nc2ccc(N3CCc4c(n(C)c5ccc(F)cc45)C3)cc2o1 [Example 12] | + (+ % 25 < x < 10)
COc1ccc2c(c1)c1c(n2C)CN(c2ccc3oc(N(C)C)nc3c2)CC1 [Example 21] | + (+ % 25 < x < 10)
c1ccc2c3c([nH]c2c1)CN(c1ccc2nc(N4CCOCC4)sc2c1)CC3 [Example 38] | + (+ % 25 < x < 10)
c1ccc2c3c([nH]c2c1)CN(c1ccc(N2CCOCC2)cn1)CC3 [Example 43] | ++ (++ % 50 < x < 25)
Cn1c2c(c3ccccc31)CCN(c1ccc(N3CCOCC3)cn1)C2 [Example 45] | ++ (++ % 50 < x < 25)
